Consider one compound from article PMC10525135, “Computationally Designed AMPs with Antibacterial and Antibiofilm Activity against MDR Acinetobacter baumannii” (Antibiotics, 2023).

Residues, ends and D or L forms follow the SMILES beside them.

Assay [1] deals with A. baumannii BAA-1710 and -1794 biofilm. Description: Antibiofilm screening at 100 µg/mL (crystal violet). The class given is cell-based, Acinetobacter baumannii. To be noted: n = 3. The method, then:
As the first step, antibacterial screening (n = 3) was performed on MDR strains of A. baumannii listed in Table 5, with each peptide at a concentration of 100 μg/mL in MHB. […] Growth was measured spectrophotometrically at OD600 nm at 20–24 h, following the CLSI protocol for A. baumannii incubation for MIC [99]. Similarly, biofilm formation was first established for tested A. baumannii strains using our crystal violet-staining protocol described below. Then, antibiofilm screening (n = 3) of each peptide against biofilm formation of A. baumannii was determined at 100 μg/mL. Peptides that were active in this screen were then analyzed in more detail as described below. Positive controls were used, such as LL-37 and polymyxin B [18, 66, 67]. Samples containing only the medium were considered as the sterility control whereas samples containing only bacteria served as the growth control.
The MBIC assay measures the lowest concentration of a compound that inhibits the biofilm formation of an organism. […] After the incubation of bacteria with AMPs, OD600 nm was measured for approximate bacterial growth. […] After that, 200 µL of 33% glacial acetic acid was added to resolubilize the stain, and biofilm mass was measured by a spectrophotometric reading at OD590. […]

The subject of assay [2] is A. baumannii BAA-1800 biofilm. To be noted: A. baumannii BAA-1800, TSB, 24 h 37 °C. The method, then: The MBIC assay measures the lowest concentration of a compound that inhibits the biofilm formation of an organism. A series of decreasing peptide concentrations starting from 64 μg/mL to 0.25 μg/mL (100 µL) were incubated with 1 × 10^5 CFU of A. baumannii in 100 µL of Tryptic Soy broth (TSB) in a polystyrene 96-well plate (Falcon 353072, Corning, NY, USA) for 24 h at 37 °C to assess biofilm formation inhibition, as described previously with minor modifications. After the incubation of bacteria with AMPs, OD600 nm was measured for approximate bacterial growth. Media were carefully removed, and wells (n = 3) were rinsed with tap water. Plates were heat-fixed at 70 °C for 1 h, and 200 µL of 0.1% crystal violet diluted in deionized water were added to wells and allowed to incubate for 15 min. Excess stain was rinsed off with tap water, and the plates were air-dried. After that, 200 µL of 33% glacial acetic acid was added to resolubilize the stain, and biofilm mass was measured by a spectrophotometric reading at OD590. Bacteria alone (no treatment) served as the 100% biofilm control, and media alone and media with a peptide/drug were used as the sterility control and the 0% biofilm control.

Another assay relates to AB5075. Briefly: Membrane depolarization assay (DiSC3(5)). Particulars: 50 µg/mL, DiSC3(5) fluorescence, 20 min, versus untreated bacteria. The class given is cell-based, Acinetobacter baumannii. On the procedure:
A membrane depolarization assay was performed using a cationic dye, 3,3′-dipropylthiadicarbocyanine iodide (DiSC3(5)) as we previously described, with some modifications. Briefly, AB5075 was grown overnight on a Tryptic Soy agar, and opaque colonies were emulsified in DPBS (Gibco) until the 0.5 McFarland standard was achieved (~1 × 10^8 CFU/mL). A bacterial suspension of 4 × 10^7 CFU/mL was prepared and washed twice with DPBS, and then bacteria were resuspended in DPBS containing 10 µg/mL of DiSC3(5). An aliquot of 100 µL of the bacteria DiSC3(5) suspension was added to a black 96-well flat plate (Ultracruz Polypropylene Microplate sc-204462, Santacruz, CA, USA). The plate was incubated at room temperature in BioTek Cytation 5 and monitored until fluorescence stopped decreasing. An aliquot of 100 µL of peptide or DPBS (the untreated control) was added to each well (a final concentration of peptide of 50 µg/mL) and the plate was immediately returned to the plate reader. […] Readings were taken every 15 s for 20 min (excitation = 622 nm; emission = 670 nm). The experiment was repeated twice.

`CC[C@H](C)CCCCC(=O)N[C@@H](CCN)C(=O)N[C@H](C(=O)N[C@@H](CCN)C(=O)N[C@H]1CCNC(=O)[C@H]([C@@H](C)O)NC(=O)[C@H](CCN)NC(=O)[C@H](CCN)NC(=O)[C@H](CC(C)C)NC(=O)[C@@H](Cc2ccccc2)NC(=O)[C@H](CCN)NC1=O)[C@@H](C)O` [Polymyxin B] (HELM PEPTIDE1{[CC[C@H](C)CCCCC(=O)[*:2]].[Dab].T.[Dab].[Dab].[Dab].[dF].L.[Dab].[Dab].T}$PEPTIDE1,PEPTIDE1,5:R3-11:R2$$$V2.0; N-terminus assumed; bridges inferred): in assay [1], the “Biofilm inhibition in screen” value is given as “complete biofilm inhibition”. In assay [2] (crystal violet), this compound gave an MBEC50 of 2 µg/mL. Further, the MBIC100 in assay [2] (polystyrene plate, crystal violet OD590, n = 3) was 1 µg/mL. The Membrane depolarization result with AB5075 was “significant membrane depolarization effect”.
